Read-outs that look alike come from different tables or passages of the source.
Experiments:
Candida albicans KMM 455 [1] = experiment: Antimicrobial assay, growth inhibition (optical density); format: cell-based
Protocol: (§1) The Gram-positive bacterial Staphylococcus aureus ATCC 21027, Gram-negative bacterial Escherichia coli VKPM (B-7935), and yeast-like fungal Candida albicans KMM 455 strains were fermented on solid medium Mueller Hinton broth with agar (16.0 g/L) in a Petri dish at 37 °C for 24 h. The antimicrobial activity of the compound was tested at concentrations ranging from 100 µM and lower. The effect of the compound on bacterial growth was estimated as described by. Gentamicin and amphotericin B were used as positive controls against S. aureus, E. coli, and C. albicans, and a 1% dimethyl sulfoxide (DMSO) solution in PBS was used as a negative control. The optical density of the bacterial suspension after 18 h was measured at λ = 620 nm. The effect of the compound on biofilm formation for 18 h was tested using MTT reagent (Sigma-Aldrich, St. Louis, MO, USA) in accordance with. The optical density of the obtained solution was measured at λ = 570 nm. A Multiskan FS spectrophotometer (Thermo Scientific Inc., Beverly, MA, USA) was used for both assays. The results were calculated as percentages of the control data and presented as minimal concentrations reduced by 50% of growth or biofilm formation (MIC50).

[2] = system: Escherichia coli VKPM (B-7935); experiment: as above; format: cell-based
Protocol: as §1

[3] = system: Staphylococcus aureus ATCC 21027; experiment: as above; format: cell-based
Protocol: as §1

Candida albicans KMM 455 [4] = experiment: Biofilm formation assay (MTT); format: cell-based
Protocol: as §1

[5] = system: Escherichia coli VKPM (B-7935); experiment: Biofilm formation assay (MTT); format: cell-based
Protocol: as §1

[6] = system: Staphylococcus aureus ATCC 21027; experiment: Biofilm formation assay (MTT); format: cell-based
Protocol: as §1

[7] = Cell viability assay (MTT); format: cell-based, rat; conditions: rat, H9c2 cardiomyocytes, read-out: Cytotoxicity IC50
Excerpt: (§2) Rat cardiomyocyte H9c2 cells were kindly provided by Prof. Dr. Gunhild von Amsberg from the Martini-Klinik Prostate Cancer Center, University Hospital Hamburg-Eppendorf, Hamburg, Germany. The human HaCaT keratinocyte cell line was kindly provided by Prof. N. Fusenig (Cancer Research Centre, Heidelberg, Germany). Non-cancerous human breast epithelial MCF-10A cells were kindly provided by Dr. Irina Zhitnyak (N. N. Blokhin National Medical Research Center of Oncology, Moscow, Russia). Human breast cancer MCF-7 HTB-22 and MDA-MB-231 cells were obtained from the ATTC (Manassas, VA, USA).
(§3) H9c2 and HaCaT cells were cultured in DMEM with 10% fetal bovine serum and 1% penicillin/streptomycin (BioloT, St. Petersburg, Russia). MCF-7 and MDA-MB-231 cells were cultured in MEM (BioloT, St. Petersburg, Russia) with 10% fetal bovine serum (FBS) and 1% penicillin/streptomycin (BioloT, St. Petersburg, Russia). MCF 10A cells were cultured in DMEM F12 medium (BioloT, St. Petersburg, Russia) supplemented with 20% FBS, 20 ng/mL hrEGF (Sci-Store, Moscow, Russia), and 1% penicillin/streptomycin (BioloT, St. Petersburg, Russia). All cells were cultured at 37 °C in a humidified atmosphere containing 5% CO2.
(§4) H9c2 cells were seeded at a concentration of 3 × 10^3 cells/well. MCF-10A, MCF-7, and MDA-MB-231 cells were seeded at 5 × 10^3 cells/well, and HaCaT cells were seeded at 1 × 10^4 cells/well. The experiments were initiated after 24 h.
(§5) Compounds at concentrations up to 100 µM were added to the wells for 24h or 48 h, and the viability of the cells was measured using an MTT (3-(4,5-dimethylthiazol-2-yl)-2,5-diphenyltetrazolium bromide) assay, which was performed according to the manufacturer’s instructions (Sigma-Aldrich, Munich, Germany). […] DMSO was used as a control. The results are presented as percentages of the control data.

H9c2 cardiomyocytes = experiment: Cell viability assay (MTT); format: cell-based, rat
Excerpt: as §2, §3, §4, §5

[8] = Cell viability assay (MTT); format: cell-based, human; conditions: human, read-out: Cytotoxicity IC50
Excerpt: as §2, §3, §4, §5

HaCaT keratinocytes = experiment: Cell viability assay (MTT); format: cell-based, human
Excerpt: as §2, §3, §4, §5

[9] = system: MCF-10A breast epithelial cells; experiment: Cell viability assay (MTT); format: cell-based, human; conditions: MCF10A
Excerpt: as §2, §3, §4, §5

[10] = system: MCF-7 breast cancer cells; experiment: Cell viability assay (MTT); format: cell-based, human
Excerpt: as §2, §3, §4, §5

[11] = system: MDA-MB-231 breast cancer cells; experiment: Cell viability assay (MTT); format: cell-based, human
Excerpt: as §2, §3, §4, §5

For `Cc1c(C)c(O)c2c(c1C)C(C)C(=O)OC2=O` (stereo not shown) [Compound 4, sclerin], the MIC50 (Candida albicans KMM 455 [1]; Candida albicans, KMM455, 18 h, C. albicans, 18 h) was over 100 µM, the “effect on C. albicans growth” value (Candida albicans KMM 455 [1]; at / up to 100 µM) was “did not affect” and the MIC50 ([2]; Escherichia coli, 18 h, E. coli) was over 100 µM. The “effect on E. coli growth” value ([2]; at / up to 100 µM) was “did not affect”, the MIC50 ([3]; Staphylococcus aureus, ATCC21027, 18 h, S. aureus, 18 h) was over 100 µM and the “effect on S. aureus growth” value ([3]; at / up to 100 µM) was “did not affect”. For the same compound, the “Biofilm formation, MIC50” value (Candida albicans KMM 455 [4]; C. albicans, 18 h) was over 100 µM, the “prevention of C. albicans biofilm formation” value (Candida albicans KMM 455 [4]; at 100 µM) was 20.22 ± 5.24% and the “Biofilm formation, MIC50” value ([5]; E. coli, 18 h) was over 100 µM. The “effect on E. coli biofilm formation” value ([5]; at / up to 100 µM) was “did not affect”, the “Biofilm formation, MIC50” value ([6]; S. aureus, 18 h) was over 100 µM and the “effect on S. aureus biofilm formation” value ([6]; at / up to 100 µM) was “did not affect”. For the same compound, the IC50 at 24 h ([7]; H9c2, 24 h) was over 100 µM, the IC50 at 48 h ([7]; H9c2, 48 h) was 57.2 ± 2.4 µM and the cell viability (H9c2 cardiomyocytes; H9c2, 24 h, 1.0 µM) was 101.9 ± 5.8 % of control. The cell viability (H9c2 cardiomyocytes; H9c2, 24 h, 10.0 µM) was 101.9 ± 6.1 % of control, the cell viability (H9c2 cardiomyocytes; H9c2, 24 h, 100.0 µM) was 73.5 ± 4.4 % of control and the cell viability (H9c2 cardiomyocytes; H9c2, 48 h, 1.0 µM) was 101.4 ± 5.6 % of control. The cell viability (H9c2 cardiomyocytes; H9c2, 48 h, 10.0 µM) was 102.6 ± 7.4 % of control, the cell viability (H9c2 cardiomyocytes; H9c2, 48 h, 100.0 µM) was 56.2 ± 0.9 % of control and the IC50 at 24 h ([8]; HaCaT keratinocytes, 24 h) was at least 100 µM. For the same compound, the IC50 at 48 h ([8]; HaCaT keratinocytes, 48 h) was at least 100 µM, the IC50 at 24 h ([8]; MCF-7 breast cancer cells, MCF-7, 24 h) was over 100 µM and the IC50 at 48 h ([8]; MCF-7 breast cancer cells, MCF-7, 48 h) was over 100 µM. The IC50 at 24 h ([8]; MCF-10A breast epithelial cells, MCF10A, 24 h) was 93.4 ± 3.5 µM, the IC50 at 48 h ([8]; MCF-10A breast epithelial cells, MCF10A, 48 h) was over 100 µM and the IC50 at 24 h ([8]; MDA-MB-231 breast cancer cells, MDA-MB-231, 24 h) was over 100 µM. For the same compound, the IC50 at 48 h ([8]; MDA-MB-231 breast cancer cells, MDA-MB-231, 48 h) was 94.1 ± 3.2 µM, the cell viability (HaCaT keratinocytes; 24 h, 1.0 µM) was 100.2 ± 6.6 % of control and the cell viability (HaCaT keratinocytes; 24 h, 10.0 µM) was 94.7 ± 5.0 % of control. For the same compound, the cell viability (HaCaT keratinocytes; 24 h, 100.0 µM) was 49.5 ± 6.0 % of control, the cell viability (HaCaT keratinocytes; 48 h, 1.0 µM) was 96.4 ± 1.4 % of control and the cell viability (HaCaT keratinocytes; 48 h, 10.0 µM) was 72.1 ± 11.1 % of control. The cell viability (HaCaT keratinocytes; 48 h, 100.0 µM) was 51.5 ± 2.1 % of control, the cell viability ([9]; 24 h, 1.0 µM) was 90.8 ± 7.8 % of control and the cell viability ([9]; 24 h, 10.0 µM) was 88.6 ± 5.2 % of control. The cell viability ([9]; 24 h, 100.0 µM) was 47.0 ± 3.2 % of control, the cell viability ([9]; 48 h, 1.0 µM) was 98.0 ± 4.0 % of control and the cell viability ([9]; 48 h, 10.0 µM) was 96.8 ± 2.1 % of control. For the same compound, the cell viability ([9]; 48 h, 100.0 µM) was 73.5 ± 1.1 % of control, the cell viability ([10]; MCF-7, 24 h, 1.0 µM) was 104.3 ± 4.6 % of control and the cell viability ([10]; MCF-7, 24 h, 10.0 µM) was 103.4 ± 5.4 % of control. The cell viability ([10]; MCF-7, 24 h, 100.0 µM) was 68.3 ± 4.5 % of control, the cell viability ([10]; MCF-7, 48 h, 1.0 µM) was 88.5 ± 4.7 % of control and the cell viability ([10]; MCF-7, 48 h, 10.0 µM) was 95.9 ± 3.5 % of control. For the same compound, the cell viability ([10]; MCF-7, 48 h, 100.0 µM) was 74.1 ± 4.5 % of control, the cell viability ([11]; MDA-MB-231, 24 h, 1.0 µM) was 94.8 ± 4.2 % of control and the cell viability ([11]; MDA-MB-231, 24 h, 10.0 µM) was 102.7 ± 4.9 % of control. For the same compound, the cell viability ([11]; MDA-MB-231, 24 h, 100.0 µM) was 63.1 ±1.6 % of control, the cell viability ([11]; MDA-MB-231, 48 h, 1.0 µM) was 94.3 ± 3.9 % of control and the cell viability ([11]; MDA-MB-231, 48 h, 10.0 µM) was 91.8 ± 7.5 % of control. For the same compound, the cell viability ([11]; MDA-MB-231, 48 h, 100.0 µM) was 47.1 ± 6.2 % of control.

Source: paper PMC12471299, “Secondary Metabolites of the Marine Sponge-Derived Fungus Aspergillus subramanianii 1901NT-1.40.2 and Their Antimicrobial and Anticancer Activities” (Marine Drugs, 2025)
